Tests used:
Design in all cases: scale not given: the % may be the effect or the level left
[1] = biological target: Proto-oncogene tyrosine-protein kinase Src (Homo sapiens) (UniProt P12931); experiment: Inhibition of human c-Src assessed as enzyme activity at 1 uM using poly[Glu:Tyr] (4:1) as substrate preincubated for 20 mins followed by [gamma-33P]-ATP addition and measured after 120 mins by radiometric Hot-SpotSM Kinase assay relative to control
[2] = biological target: T1, Serine/threonine-protein kinase Chk1 (Homo sapiens) (UniProt O14757); experiment: Inhibition of human CHK1 assessed as enzyme activity at 1 uM using KKKVSRSGLYRSPSMPENLNRPR as substrate preincubated for 20 mins followed by [gamma-33P]-ATP addition and measured after 120 mins by radiometric Hot-SpotSM Kinase assay relative to control
T1 sequence (whole entry): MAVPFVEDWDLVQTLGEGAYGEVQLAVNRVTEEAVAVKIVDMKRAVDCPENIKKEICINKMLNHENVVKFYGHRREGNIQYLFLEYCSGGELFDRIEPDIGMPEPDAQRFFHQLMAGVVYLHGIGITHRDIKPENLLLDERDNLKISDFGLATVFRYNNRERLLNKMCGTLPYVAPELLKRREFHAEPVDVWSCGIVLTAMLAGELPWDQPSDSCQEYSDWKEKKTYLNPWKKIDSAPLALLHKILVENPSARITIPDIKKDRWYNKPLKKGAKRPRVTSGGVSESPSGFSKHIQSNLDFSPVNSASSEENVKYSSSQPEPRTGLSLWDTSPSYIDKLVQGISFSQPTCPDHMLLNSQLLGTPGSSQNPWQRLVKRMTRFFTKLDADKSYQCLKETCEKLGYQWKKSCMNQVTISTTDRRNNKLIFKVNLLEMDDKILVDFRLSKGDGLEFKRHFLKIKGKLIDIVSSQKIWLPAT

[3] = biological target: Dual specificity protein kinase CLK4 (Homo sapiens) (UniProt Q9HAZ1); experiment: Inhibition of human CLK4 assessed as enzyme activity at 1 uM using myelin basic protein as substrate preincubated for 20 mins followed by [gamma-33P]-ATP addition and measured after 120 mins by radiometric Hot-SpotSM Kinase assay relative to control
[4] = biological target: Dual specificity tyrosine-phosphorylation-regulated kinase 1A (Homo sapiens) (UniProt Q13627); experiment: Inhibition of human DYRK1/DYRK1A assessed as enzyme activity at 1 uM using RRRFRPASPLRGPPK as substrate preincubated for 20 mins followed by [gamma-33P]-ATP addition and measured after 120 mins by radiometric Hot-SpotSM Kinase assay relative to control
[5] = biological target: Focal adhesion kinase 1 (Homo sapiens) (UniProt Q05397); experiment: Inhibition of human FAK assessed as enzyme activity at 1 uM using poly[Glu:Tyr] (4:1) as substrate preincubated for 20 mins followed by [gamma-33P]-ATP addition and measured after 120 mins by radiometric Hot-SpotSM Kinase assay relative to control
[6] = biological target: Receptor-type tyrosine-protein kinase FLT3 (Homo sapiens) (UniProt P36888); experiment: Inhibition of human FLT3 assessed as enzyme activity at 1 uM using EAIYAAPFAKKK as substrate preincubated for 20 mins followed by [gamma-33P]-ATP addition and measured after 120 mins by radiometric Hot-SpotSM Kinase assay relative to control
[7] = biological target: Dual specificity mitogen-activated protein kinase kinase 1 (Homo sapiens) (UniProt Q02750); experiment: Inhibition of human MEK1 assessed as enzyme activity at 1 uM using ERK2 (K52R) as substrate preincubated for 20 mins followed by [gamma-33P]-ATP addition and measured after 120 mins by radiometric Hot-SpotSM Kinase assay relative to control
[8] = biological target: T2, Serine/threonine-protein kinase NLK (Homo sapiens) (UniProt Q9UBE8); experiment: Inhibition of human NLK assessed as enzyme activity at 1 uM using myelin basic protein as substrate preincubated for 20 mins followed by [gamma-33P]-ATP addition and measured after 120 mins by radiometric Hot-SpotSM Kinase assay relative to control
T2 sequence (whole entry): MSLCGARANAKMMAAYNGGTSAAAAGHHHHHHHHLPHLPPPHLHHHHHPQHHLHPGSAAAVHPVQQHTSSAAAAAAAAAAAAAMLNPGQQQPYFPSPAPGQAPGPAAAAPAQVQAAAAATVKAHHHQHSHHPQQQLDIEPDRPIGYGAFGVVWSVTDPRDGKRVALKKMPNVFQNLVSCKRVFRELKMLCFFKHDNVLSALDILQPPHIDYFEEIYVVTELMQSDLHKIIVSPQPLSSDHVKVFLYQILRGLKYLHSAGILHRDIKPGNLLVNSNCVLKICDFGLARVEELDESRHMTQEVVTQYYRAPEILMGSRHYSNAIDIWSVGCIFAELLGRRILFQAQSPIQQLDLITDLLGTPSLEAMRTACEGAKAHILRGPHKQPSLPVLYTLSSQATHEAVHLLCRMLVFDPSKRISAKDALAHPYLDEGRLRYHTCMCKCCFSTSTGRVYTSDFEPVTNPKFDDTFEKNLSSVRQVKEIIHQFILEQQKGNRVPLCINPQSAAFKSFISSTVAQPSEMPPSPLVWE

[9] = biological target: Serine/threonine-protein kinase SBK1 (Homo sapiens) (UniProt Q52WX2); experiment: Inhibition of human SBK1 assessed as enzyme activity at 1 uM using LCGRTGRRNSI as substrate preincubated for 20 mins followed by [gamma-33P]-ATP addition and measured after 120 mins by radiometric Hot-SpotSM Kinase assay relative to control

CC[C@H](Nc1ncnc2[nH]cnc12)c1nc2cccc(F)c2c(=O)n1-c1ccccc1
Activity [1]: 85.2% | Activity [2]: 93.2% | Activity [3]: 103% | Activity [4]: 87.8% | Activity [5]: 103% | Activity [6]: 99.3% | Activity [7]: 100% | Activity [8]: 103% | Activity [9]: 101%

C[C@H](Nc1ncnc2nc[nH]c12)c1cc2cccc(Cl)c2c(=O)n1-c1ccccc1
Activity [1]: 86.7% | Activity [2]: 94.1% | Activity [3]: 107% | Activity [4]: 89% | Activity [5]: 98.4% | Activity [6]: 101% | Activity [7]: 97.2% | Activity [8]: 96.2% | Activity [9]: 99.5%

CC(C)Oc1ccc(-c2nn([C@@H](C)c3oc4ccc(F)cc4c(=O)c3-c3cccc(F)c3)c3ncnc(N)c23)cc1F [UMBRALISIB]
Activity [1]: 87.6% | Activity [2]: 95% | Activity [3]: 116% | Activity [4]: 87% | Activity [5]: 100% | Activity [6]: 95.5% | Activity [7]: 94.4% | Activity [8]: 98.3% | Activity [9]: 98.8%
